Test results from patent US12351581B2, “Compounds for FGFR inhibition” (Cogent Biosciences, Inc., priority 2023, dated 2025).
Where two headings read alike, the source gives them in different places.

Key:
FGFR2-WT = FGFR2-WT (Homo sapiens, UniProt P21802); assay: Phosphorylated FGFR2-WT (pFGFR2-WT) cell assay, KATOIII cells; format: cell-based; conditions: 1 hour incubation, phospho FGFR2 HTRF
Experimental: KATOIII cells were grown in the appropriate growth medium, IMDM supplemented with 20% fetal bovine serum. Cells were seeded into a 384-well at 1×10^5 cells/25 μL/well. Cells were treated with compound using three-fold serial dilutions at final concentrations ranging from 10 μM to 0.5 nM. Compound was incubated on cells for 1 hour at 37° C., 5% CO2.
Following the 1-hour incubation with compounds, cell lysates were prepared and phospho FGFR2 was measured using the HTRF Phospho-FGFR2 (TYR653/654) Detection Kits (CisBio, cat #64FGFR2Y6PEG). 8 μL of cell lysis buffer (4×) supplied with 1× Phospho and Total protein blocking reagent (CisBio, cat #64FGFR2Y6PEG, CisBio, cat #64KB1AAC) was then added to the wells. Cells were incubated with lysis buffer for 40 minutes at 4° C. under shaking conditions. Plates were centrifuged at 1500 rpm for 3 min and then 16 μL of cell lysate was transferred from the cell-culture plate to a small volume detection plate with the added premixed antibody solutions (4 μL) (CisBio, cat #64FGFR2Y6PEG). Plates were centrifuged at 1000 rpm for 1 min then incubated at 25° C. for 120 min, then overnight at 4° C. Plates were read on the En Vision multimode plate reader via HTRF dual wavelength detection. One hundred percent of control (POC) was determined using DMSO treated samples, and 0 POC was determined using the top concentration of a control compound. A 4-parameter logistic curve was fit to the POC values as a function of compound concentration to determine the IC50 value.

FGFR2 V564I = biological target: T1, FGFR2 V564I (Homo sapiens, UniProt P21802, V564I); assay: FGFR mutant enzyme assay (HTRF KinEASE-TK); format: biochemical; conditions: ATP 0.4 uM
T1 construct: biochemical assays using purified intracellular domains of the respective isoforms; purchased Carna Bioscience 08-546
T1 sequence (P21802 399-821 V564I limits assumed): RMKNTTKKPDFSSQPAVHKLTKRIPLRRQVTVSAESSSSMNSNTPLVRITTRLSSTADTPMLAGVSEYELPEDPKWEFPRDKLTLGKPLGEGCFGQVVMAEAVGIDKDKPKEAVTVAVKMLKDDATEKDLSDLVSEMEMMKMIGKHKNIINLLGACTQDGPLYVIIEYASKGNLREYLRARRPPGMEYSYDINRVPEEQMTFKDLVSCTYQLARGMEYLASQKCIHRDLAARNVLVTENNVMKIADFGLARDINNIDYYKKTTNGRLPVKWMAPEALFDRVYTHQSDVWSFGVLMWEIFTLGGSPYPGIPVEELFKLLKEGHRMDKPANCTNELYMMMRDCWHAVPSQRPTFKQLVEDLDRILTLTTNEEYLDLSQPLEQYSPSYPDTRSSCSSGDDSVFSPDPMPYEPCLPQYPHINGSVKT
Experimental: (§1) Activity against FGFR wild type and mutant enzymes were determined in biochemical assays using purified intracellular domains of the respective isoforms using HTRF KinEASE-TK assay technology from CisBio, now PerkinElmer. (Catalogue number 62TK0PEC). Briefly test compounds were tested in 11 point 1:3 serial dilutions, typical final concentration range from 10,000 nM to 0.17 nM. Test compounds were dissolved in DMSO and added to assay plates using acoustic transfer. Enzyme was pre-incubated with test compound for 30 minutes and the assay was initiated by addition of ATP and TK-peptide substrate. After 60 minutes at room temperature the reaction was quenched with detection reagent and incubated for an additional 60 minutes at room temperature. The plates were read using a multimode reader and the emission ratio of 665 nm to 615 nm was determined. This ratio was converted to percent of control (POC). [1-(high control-sample signal)/(high control-low control)]*100. Wells without compound were used to determine high control values and wells without enzyme were used to determine low control values. The POC values were fit using a four-parameter logistic model and the value where the fit curve was equal to 50 POC was reported as the IC50 using the Signals Vitro Vivo software package (PerkinElmer). Final assay conditions were: 50 mM HEPES pH7.5, 10 mM MgCl2, 1 mM EDTA, 0.01% Brij-35, 2 mM MnCl2, 1 mM DTT, and 0.5 uM TK-peptide. The enzyme source, catalogue number, final enzyme concentration, and final ATP concentration can be found in the tables 1-2 below.

FGFR2 V564F = biological target: T2, FGFR2 V564F (Homo sapiens, UniProt P21802, V564F); assay: FGFR mutant enzyme assay (HTRF KinEASE-TK); format: biochemical; conditions: ATP 1.5 uM
T2 construct: biochemical assays using purified intracellular domains of the respective isoforms; purchased SignalChem Biotech F05-12FG
T2 sequence (P21802 399-821 V564F limits assumed): as the sequence (P21802 399-821 V564I limits assumed) above, with I166F counted along it
Experimental: as §1

FGFR2 N549H = biological target: T3, FGFR2 N549H (Homo sapiens, UniProt P21802, N549H); assay: FGFR mutant enzyme assay (HTRF KinEASE-TK); format: biochemical; conditions: ATP 0.9 uM
T3 construct: biochemical assays using purified intracellular domains of the respective isoforms; purchased Carna Bioscience 08-532
T3 sequence (P21802 399-821 N549H limits assumed): as the sequence (P21802 399-821 V564I limits assumed) above, with N151H, I166V counted along it
Experimental: as §1

FGFR2 = biological target: T4, FGFR2 (Homo sapiens, UniProt P21802); assay: FGFR wild type enzyme assay (HTRF KinEASE-TK); format: biochemical; conditions: ATP 2 uM
T4 construct: biochemical assays using purified intracellular domains of the respective isoforms; purchased Carna Bioscience 08-134
T4 sequence (P21802 399-821 limits assumed): as the sequence (P21802 399-821 V564I limits assumed) above, with I166V counted along it
Experimental: as §1

[1] = compound table after the examples, read-out: Enz FGFR2

FGFR2-WT, sequence (P21802 430-767 limits assumed): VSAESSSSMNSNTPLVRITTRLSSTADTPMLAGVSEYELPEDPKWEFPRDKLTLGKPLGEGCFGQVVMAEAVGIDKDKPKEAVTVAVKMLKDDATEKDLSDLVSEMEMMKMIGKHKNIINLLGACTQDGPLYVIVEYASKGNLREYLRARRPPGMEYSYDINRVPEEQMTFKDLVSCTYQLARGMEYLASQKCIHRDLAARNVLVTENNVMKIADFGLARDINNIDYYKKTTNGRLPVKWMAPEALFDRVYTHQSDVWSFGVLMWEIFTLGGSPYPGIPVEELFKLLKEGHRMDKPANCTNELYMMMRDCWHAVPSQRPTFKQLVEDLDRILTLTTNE

SMILES	IC50 (FGFR2-WT) [nM]	IC50 (FGFR2 V564I) [nM]	IC50 (FGFR2 V564F) [nM]	IC50 (FGFR2 N549H) [nM]	IC50 (FGFR2; Table 3, read-out: FGFR2 Enz) [nM]	IC50 (FGFR2; [1]) [nM]
C[C@H](Oc1cc(-c2cnn(C3CCNCC3)c2)cn2ncc(C#N)c12)c1ccccn1 [Compound 3, (S)-6-(1-(piperidin-4-yl)-1H-pyrazol-4-yl)-4-(1-(pyridin-2-yl)ethoxy)pyrazolo[1,5-a]pyridine-3-carbonitrile]	128				21	21
Cc1nn(C2CCNCC2)c(C)c1-c1cc(O[C@H](C)c2ccccn2)c2c(C#N)cnn2c1 [Compound 4, (R)-6-(3,5-dimethyl-1-(piperidin-4-yl)-1H-pyrazol-4-yl)-4-(1-(pyridin-2-yl)ethoxy)pyrazolo[1,5-a]pyridine-3-carbonitrile]	26	4	3	2	1	1
Cc1nn(C2CCN(C)CC2)c(C)c1-c1cc(O[C@H](C)c2ccccn2)c2c(C#N)cnn2c1 [Compound 6, (R)-6-(3,5-dimethyl-1-(1-methylpiperidin-4-yl)-1H-pyrazol-4-yl)-4-(1-(pyridin-2-yl)ethoxy)pyrazolo[1,5-a]pyridine-3-carbonitrile]	15	4.3	4	2.4	1	1
Cc1c(-c2cc(O[C@H](C)c3ncccc3F)c3c(C#N)cnn3c2)cnn1C1CCNCC1 [Compound 9, (R)-4-(1-(3-fluoropyridin-2-yl)ethoxy)-6-(5-methyl-1-(piperidin-4-yl)-1H-pyrazol-4-yl)pyrazolo[1,5-a]pyridine-3-carbonitrile]	7	1	1	0.5	0.3	0.3
Cc1nn([C@H]2CCCNC2)c(C)c1-c1cc(O[C@H](C)c2ncccc2F)c2c(C#N)cnn2c1 [Compound 11, 6-(3,5-dimethyl-1-((S)-piperidin-3-yl)-1H-pyrazol-4-yl)-4-((R)-1-(3-fluoropyridin-2-yl)ethoxy)pyrazolo[1,5-a]pyridine-3-carbonitrile]	23	5.8	4.4	4.6	1.4	0.5
Cc1c(-c2cc(O[C@H](C)c3ccc(Cl)cn3)c3c(C#N)cnn3c2)cnn1[C@H]1CCCNC1 [Compound 14, 4-((R)-1-(5-chloropyridin-2-yl)ethoxy)-6-(5-methyl-1-((S)-piperidin-3-yl)-1H-pyrazol-4-yl)pyrazolo[1,5-a]pyridine-3-carbonitrile]	267	38	15	14	12.5	12.5
C[C@@H]1CN(c2ccc(-c3cc(O[C@H](C)c4ccc(F)cn4)c4c(C#N)cnn4c3)cn2)C[C@H](C)O1 [Compound 16, 6-(6-((2S,6R)-2,6-dimethylmorpholino)pyridin-3-yl)-4-((R)-1-(5-fluoropyridin-2-yl)ethoxy)pyrazolo[1,5-a]pyridine-3-carbonitrile]	8	1	0.8	0.3	0.5	0.5

Molecules with a lower IC50 (FGFR2-WT), results first:

IC50 (FGFR2-WT) [nM]	IC50 (FGFR2 V564I) [nM]	IC50 (FGFR2 V564F) [nM]	IC50 (FGFR2 N549H) [nM]	IC50 (FGFR2; Table 3, read-out: FGFR2 Enz) [nM]	IC50 (FGFR2; [1]) [nM]	SMILES
6	1	1	0.5	0.3	0.3	Cc1c(-c2cc(O[C@H](C)c3ccccn3)c3c(C#N)cnn3c2)cnn1C1CCN(C)CC1 [Compound 7, (R)-6-(5-methyl-1-(1-methylpiperidin-4-yl)-1H-pyrazol-4-yl)-4-(1-(pyridin-2-yl)ethoxy)pyrazolo[1,5-a]pyridine-3-carbonitrile]
5	1.4	1	0.7	0.25	0.25	Cc1c(-c2cc(O[C@H](C)c3ccccn3)c3c(C#N)cnn3c2)cnn1C1CCNCC1 [Compound 5, (R)-6-(5-methyl-1-(piperidin-4-yl)-1H-pyrazol-4-yl)-4-(1-(pyridin-2-yl)ethoxy)pyrazolo[1,5-a]pyridine-3-carbonitrile]
5	1	0.8	0.55	0.3	0.3	Cc1c(-c2cc(O[C@H](C)c3ncccc3F)c3c(C#N)cnn3c2)cnn1[C@H]1CCCNC1 [Compound 10, 4-((R)-1-(3-fluoropyridin-2-yl)ethoxy)-6-(5-methyl-1-((S)-piperidin-3-yl)-1H-pyrazol-4-yl)pyrazolo[1,5-a]pyridine-3-carbonitrile]
4.7	1.8	1.3	0.7	0.45	0.5	Cc1c(-c2cc(O[C@H](C)c3ccc(F)cn3)c3c(C#N)cnn3c2)cnn1[C@H]1CCCNC1 [Compound 12, 4-((R)-1-(5-fluoropyridin-2-yl)ethoxy)-6-(5-methyl-1-((S)-piperidin-3-yl)-1H-pyrazol-4-yl)pyrazolo[1,5-a]pyridine-3-carbonitrile]
3.8	2	1.6	0.6	0.5	0.6	CC(=O)N1CCC[C@H](n2ncc(-c3cc(O[C@H](C)c4ccc(F)cn4)c4c(C#N)cnn4c3)c2C)C1 [Compound 13, 6-(1-((S)-1-acetylpiperidin-3-yl)-5-methyl-1H-pyrazol-4-yl)-4-((R)-1-(5-fluoropyridin-2-yl)ethoxy)pyrazolo[1,5-a]pyridine-3-carbonitrile]
3.4	1.4	1	0.4	0.3	0.3	Cc1c(-c2cc(O[C@H](C)c3ccc(F)cn3)c3c(C#N)cnn3c2)cnn1[C@H]1CC[C@H](O)CC1 [Compound 1, 4-[(1R)-1-(5-fluoro-2-pyridyl)ethoxy]-6-[1-(4-hydroxycyclohexyl)-5-methyl-pyrazol-4-yl]pyrazolo[1,5-a]pyridine-3-carbonitrile]
3.4	1.7	1	0.5	0.6	0.6	Cc1c(-c2cc(O[C@H](C)c3ccc(F)cn3)c3c(C#N)cnn3c2)cnn1[C@H]1CCCN(C(=O)C(C)(C)O)C1 [Compound 17, 4-((R)-1-(5-fluoropyridin-2-yl)ethoxy)-6-(1-((S)-1-(2-hydroxy-2-methylpropanoyl)piperidin-3-yl)-5-methyl-1H-pyrazol-4-yl)pyrazolo[1,5-a]pyridine-3-carbonitrile]
2.5	0.24	0.14	0.05	0.16	0.16	C[C@@H](Oc1cc(-c2cnn(C3CCNCC3)c2)cn2ncc(C#N)c12)c1ccccn1 [Compound 2, (R)-6-(1-(piperidin-4-yl)-1H-pyrazol-4-yl)-4-(1-(pyridin-2-yl)ethoxy)pyrazolo[1,5-a]pyridine-3-carbonitrile]
2	0.1	0.08	0.05	0.2	0.2	C[C@@H](Oc1cc(-c2cnn(C3CCNCC3)c2)cn2ncc(C#N)c12)c1ncccc1F [Compound 8, (R)-4-(1-(3-fluoropyridin-2-yl)ethoxy)-6-(1-(piperidin-4-yl)-1H-pyrazol-4-yl)pyrazolo[1,5-a]pyridine-3-carbonitrile]
